These results are taken from patent US11300509B2, “Cleavable linkers for protein translation reporting” (9412-1126 Québec inc., priority 2020, dated 2022).

One experiment deals with T1, Cherry1-10 (Discosoma sp., UniProt Q9U6Y8, A164R/C117E/F124L/F177V/H162N/H41T/I125L/I180T/K163Q/K83L/K92T/L150M/L174D/M182K/N42Q/Q66M/R153E/R17H/R36H/S179T/S197I/T21S/V127T/V156A/V175A/V44A/V71A/Y192A/Y194N).
T1 construct: made in house; host or cells: Escherichia coli BL21(DE3)
As to the kind of experiment: In vitro reconstitution of split Cherry: Cherry11 peptide mixed with Cherry1-10. It is filed as binding. Here is the method:
Fluorescence output was recorded every 0.1 seconds for a duration of 30 seconds.
In vitro fluorescence complementation was performed by mixing purified XFP1-10 protein and chemically synthesized XFP11 peptides and the fluorescence intensity of the reaction was collected with a StepOnePlus real-time thermal cycler (Thermo-Fisher). […] XFP1-10 in TNG buffer or PBS (varied pH) was added to wells of a 96-well microplate coated with 1 mM bovine serum albumin and allowed to equilibrate for 60 seconds. XFP11 peptide was added according to different final peptide concentrations and the microplate was immediately loaded into the fluorescence reader. The fluorescence intensity was measured every 10 seconds for 45 minutes at 32° C. or 37° C. with 495 nm excitation and 520 nm emission. The fluorescence intensity was normalized to the initial fluorescence intensity to express relative fluorescence increase upon fluorescence reconstitution. […] Standard curves for XFP fluorescence measurements were generated by either using reconstituted XFP or XFP purified from E. coli using GFP specific chromatography columns (Bio-Rad). XFP protein concentration was determined using the Bradford assay and absorbance readings at 280 nm with a NanoDrop 2000 (Thermo-Fisher). Samples were serially diluted (1:10 or 1:5) and 10 μL samples were imaged to reduce any non-linear fluorescence excitation effects. […]

The target of the next experiment is T2, GFP1-10 (Aequorea victoria, UniProt P42212, A206V/E111V/F64L/F99S/I128T/I167V/I171V/K166T/M153T/N105K/Q80R/S205T/S30R/S65T/V163A/Y145F/Y39I).
T2 construct: Residues 1-213 of GFP, corresponding to the first 10 beta strands of GFP (GFP1-10); made in house; host or cells: Escherichia coli BL21(DE3)
Nature of the experiment: In vitro reconstitution (fluorescence complementation) of split GFP: GFP11 peptide mixed with purified GFP1-10. Also on record: half time of reconstitution: dose or concentration left out as unconfirmed. It is filed as binding. Particulars: for observed rate constant (kobs) of GFP11 peptide binding: pseudo-first order. Here is the method: FIGS. 1F-G, relating to the stoichiometric production of GFP11 reporter as a function of time using a PTR linker to allow instantaneous detection of protein translation, are graphs that illustrate that reconstitution of split GFP as a function of seconds passed. […] Within the first second of reconstitution, i.e., in milliseconds, fluorescence emission begins (FIG. 1F), and the fluorescence intensity of the reaction rose logarithmically and began to saturate after 5 minutes (FIG. 1G). […] To obtain kinetic measurements of the reconstitution reaction at sub-second timescales, an ultrasensitive fluorescence spectrophotometer was used. A stopped-flow dispenser was used to mix and deliver known volumes of GFP1-10 and GFP11 proteins. This allowed the establishment of a to for the moment split GFP components first interact. […] Fluorescence increase over time from the bimolecular reaction was modeled as pseudo-first order and fit to a one phase association curve to determine the observed rate constant (kobs) of GFP11 peptide binding for each concentration of GFP11 tested. For 50 nM GFP11 and excess GFP1-10, the kobs is 0.003 s-1.
In the volume of a medium-size cell, the slower, lowest concentration reactions would generate tens of reconstituted molecules per second, and for the average protein synthesis hundreds per second. […].
In vitro fluorescence complementation was performed by mixing purified XFP1-10 protein and chemically synthesized XFP11 peptides and the fluorescence intensity of the reaction was collected with a StepOnePlus real-time thermal cycler (Thermo-Fisher). […] XFP11 peptide was added according to different final peptide concentrations and the microplate was immediately loaded into the fluorescence reader. The fluorescence intensity was measured every 10 seconds for 45 minutes at 32° C. or 37° C. with 495 nm excitation and 520 nm emission. The fluorescence intensity was normalized to the initial fluorescence intensity to express relative fluorescence increase upon fluorescence reconstitution. […] Standard curves for XFP fluorescence measurements were generated by either using reconstituted XFP or XFP purified from E. coli using GFP specific chromatography columns (Bio-Rad). XFP protein concentration was determined using the Bradford assay and absorbance readings at 280 nm with a NanoDrop 2000 (Thermo-Fisher). Samples were serially diluted (1:10 or 1:5) and 10 μL samples were imaged to reduce any non-linear fluorescence excitation effects. […] Total fluorescence intensity (in photon counts) was collected every 0.1 s or 0.01 s for varying durations.
Pearson's linear correlations were calculated by fitting the data to a simple linear regression model, with the coefficient of determination, R2. […]

No end group written: not given here.

In the case of “Cherry11: small fragment of split mCherry red fluorescent protein; purified peptide that reconstitutes with Cherry1-10 (MGGGGSGGGGSYTIVEQYERAEGRHSTGG)”, the “onset of reconstitution upon addition of peptide” value in the experiment with Cherry1-10 (Cherry1-10 and Cherry11 in vitro, FIG. 3E) is “immediately”. Further, the “fluorescence signal strength of reconstitution” value with Cherry1-10 (compared with split GFP and split Dendra2) was “overall weaker signal compared to split GFP and split Dendra2”.

Consider RDHMVLHEYVNAAGIT [GFP11], for which the “observed rate constant (kobs) of GFP11 peptide binding” value on GFP1-10 (50 nM GFP11 and excess GFP1-10, one phase association fit) amounted to 0.003 s⁻¹; at GFP1-10 (one phase association fit, FIG. 1G, R2=0.99) it was 0.007 ± 0.0001 s⁻¹. In addition, on GFP1-10 (one phase association fit, FIG. 1G), the “half time of reconstitution” value was determined as 95 s. Further, at GFP1-10 (stopped-flow mixing of GFP1-10 and GFP11), the “time to detection of green fluorescence upon mixing” value is ≤ 100 ms.
